From patent US20110059962A1, “TRANSCRIPTION FACTOR MODULATING COMPOUNDS AND METHODS OF USE THEREOF” (priority 2009, published 2011)

Experiments:
LcrF (VirF) = LcrF (VirF) (Yersinia pestis, UniProt P28808); experiment: biochemical; assay type: binding, Y. pseudotuberculosis
[1] = tested on: Y. pseudotuberculosis cytotoxicity toward J774 cells; experiment: microbe, parasite or virus in culture; conditions: Yersinia pseudotuberculosis, J774, read-out: % Cytotoxicity
[2] = tested on: P. aeruginosa cytotoxicity toward J774 cells; experiment: Inhibition of P. aeruginosa cytotoxicity toward J774 macrophage-like cells, whole cell LDH release assay (CytoTox 96); design: dose or concentration left out as unconfirmed; conditions: Pseudomonas aeruginosa, J774, read-out: % Cytotoxicity
SoxS = target: T1, SoxS (Escherichia coli, UniProt P0A9E2); experiment: Inhibition of SoxS-DNA binding, cell-free chemiluminescence assay; design: species or system E. coli
T1 construct: made in house; host or cells: E. coli
T1 sequence (P0A9E2 1-107): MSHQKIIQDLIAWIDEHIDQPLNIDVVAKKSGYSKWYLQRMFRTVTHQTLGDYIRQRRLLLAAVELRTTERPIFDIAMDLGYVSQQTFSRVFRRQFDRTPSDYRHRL

ExsA = target: T2, ExsA (Pseudomonas aeruginosa, UniProt P26993); experiment: Inhibition of ExsA-DNA binding, cell-free chemiluminescence assay; design: species or system P. aeruginosa
T2 construct: made in house
T2 sequence (P26993 1-278): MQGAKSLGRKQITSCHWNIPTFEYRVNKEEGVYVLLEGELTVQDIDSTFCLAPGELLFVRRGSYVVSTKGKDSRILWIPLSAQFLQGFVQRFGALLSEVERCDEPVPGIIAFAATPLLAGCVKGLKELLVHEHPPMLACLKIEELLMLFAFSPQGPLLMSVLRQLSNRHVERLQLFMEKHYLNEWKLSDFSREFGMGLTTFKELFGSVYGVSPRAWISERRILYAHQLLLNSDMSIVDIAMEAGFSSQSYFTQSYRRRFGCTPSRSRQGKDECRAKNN

Chain of LcrF (VirF) (P28808 whole entry, looked up): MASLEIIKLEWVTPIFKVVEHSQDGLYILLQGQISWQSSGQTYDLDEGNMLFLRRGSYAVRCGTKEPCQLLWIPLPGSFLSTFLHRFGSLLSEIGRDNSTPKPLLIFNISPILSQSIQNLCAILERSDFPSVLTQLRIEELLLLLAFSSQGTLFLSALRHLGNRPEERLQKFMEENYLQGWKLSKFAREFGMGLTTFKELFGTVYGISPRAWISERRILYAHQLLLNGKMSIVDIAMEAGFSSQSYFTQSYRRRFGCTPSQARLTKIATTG

SMILES: O=C(O)Cc1cc([N+](=O)[O-])cc2c1nc(-c1ccc(NC(=O)/C=C/c3ccc(F)cc3)cc1)n2O [AH]
- IC50 (LcrF (VirF)): 10 to 25 µM
- activity at 50 µg/mL [1]: 75 to 99%
- activity [2]: 75 to 99%

SMILES: CSc1ccc(/C=C/C(=O)Nc2ccc(-c3nc4ccc([N+](=O)[O-])cc4n3O)cc2)cc1 [C]
- IC50 (LcrF (VirF)): 10 to 25 µM
- activity at 50 µg/mL [1]: 75 to 99%
- IC50 (SoxS): 25 to 50 µM
- activity [2]: 75 to 99%
- IC50 (ExsA): 10 to 25 µM

SMILES: O=C(/C=C/c1ccc(F)cc1)Nc1ccc(-c2nc3ccc(F)cc3n2O)cc1 [Compound AC, (E)-N-[4-(6-Fluoro-1-hydroxy-1H-benzoimidazol-2-yl)-phenyl]-3-(4-fluoro-phenyl)-acrylamide]
- IC50 (LcrF (VirF)): > 50 µM
- activity at 50 µg/mL [1]: 75 to 99%
- activity [2]: 75 to 99%

SMILES: O=C(Nc1ccc(-c2nc3ccc([N+](=O)[O-])cc3n2O)cc1)c1ccnc(N2CCOCC2)c1 [Compound T]
- IC50 (LcrF (VirF)): > 50 µM
- activity at 50 µg/mL [1]: < 75%
- activity [2]: 75 to 99%
- IC50 (ExsA): > 50 µM

SMILES: CC(=O)c1ccc2nc(-c3ccc(NC(=O)/C=C/c4ccc(F)cc4)cc3)n(O)c2c1 [Compound AB, (E)-N-[4-(6-Acetyl-1-hydroxy-1H-benzoimidazol-2-yl)-phenyl]-3-(4-fluoro-phenyl)-acrylamide]
- IC50 (LcrF (VirF)): 25 to 50 µM
- activity at 50 µg/mL [1]: 75 to 99%
- activity [2]: 75 to 99%

SMILES: CS(=O)(=O)c1ccc2nc(-c3ccc(NC(=O)/C=C/c4ccc(F)cc4)cc3)n(O)c2c1 [Compound AD, (E)-3-(4-Fluoro-phenyl)-N-[4-(1-hydroxy-6-methanesulfonyl-1H-benzoimidazol-2-yl)-phenyl]-acrylamide]
- IC50 (LcrF (VirF)): > 50 µM
- activity at 50 µg/mL [1]: 75 to 99%
- activity [2]: 75 to 99%

SMILES: N#Cc1ccc2nc(-c3ccc(NC(=O)c4ccc(-n5cccn5)nc4)cc3)n(O)c2c1 [Compound M, N-[4-(6-Cyano-1-hydroxy-1H-benzoimidazol-2-yl)-phenyl]-6-pyrazol-1-yl-nicotinamide]
- IC50 (LcrF (VirF)): > 50 µM
- activity at 50 µg/mL [1]: < 75%
- IC50 (SoxS): > 50 µM
- activity [2]: 75 to 99%

SMILES: CSc1ccc2nc(-c3ccc(NC(=O)/C=C/c4ccc(C(C)=O)cc4)cc3)n(O)c2c1 [Compound U, (E)-3-(4-Acetyl-phenyl)-N-[4-(1-hydroxy-6-methylsulfanyl-1H-benzoimidazol-2-yl)-phenyl]-acrylamide]
- IC50 (LcrF (VirF)): > 50 µM
- activity at 50 µg/mL [1]: 75 to 99%
- activity [2]: 75 to 99%
- IC50 (ExsA): 10 to 25 µM

SMILES: CSc1ccc(/C=C/C(=O)Nc2ccc(-c3nc4ccc([N+](=O)[O-])cc4n3O)cc2)cn1 [G]
- IC50 (LcrF (VirF)): 10 to 25 µM
- activity at 50 µg/mL [1]: < 75%
- IC50 (SoxS): > 50 µM
- activity [2]: < 75%
- IC50 (ExsA): < 10 µM

SMILES: O=C(/C=C/c1ccc(C(O)(O)C(F)(F)F)cc1)Nc1ccc(-c2nc3ccc([N+](=O)[O-])cc3n2O)cc1 [K]
- IC50 (LcrF (VirF)): > 50 µM
- activity at 50 µg/mL [1]: 75 to 99%
- activity [2]: 75 to 99%
- IC50 (ExsA): > 50 µM

SMILES: CC(=O)c1ccc(C(=O)Nc2ccc(-c3nc4c(CC(=O)O)cc([N+](=O)[O-])cc4n3O)cc2)cc1 [Compound R, {2-[4-(4-Acetyl-benzoylamino)-phenyl]-1-hydroxy-6-nitro-1H-benzoimidazol-4-yl}-acetic acid]
- IC50 (LcrF (VirF)): 25 to 50 µM
- activity at 50 µg/mL [1]: 75 to 99%
- activity [2]: 75 to 99%
- IC50 (ExsA): 25 to 50 µM

SMILES: O=C(Nc1ccc(-c2nc3ccc([N+](=O)[O-])cc3n2O)cc1)c1ccc(OCC(F)(F)F)nc1 [Compound X, N-[4-(1-Hydroxy-6-nitro-1H-benzoimidazol-2-yl)-phenyl]-6-(2,2,2-trifluoro-ethoxy)-nicotinamide]
- IC50 (LcrF (VirF)): 25 to 50 µM
- activity at 50 µg/mL [1]: 75 to 99%
- activity [2]: 75 to 99%
- IC50 (ExsA): 25 to 50 µM

SMILES: CSc1ccc(/C=C/C(=O)Nc2ccc(-c3nc4ccc(C#N)cc4n3O)cc2)cn1 [Compound H, (E)-N-[4-(6-Cyano-1-hydroxy-1H-benzoimidazol-2-yl)-phenyl]-3-(6-methylsulfanyl-pyridin-3-yl)-acrylamide]
- IC50 (LcrF (VirF)): 25 to 50 µM
- activity at 50 µg/mL [1]: < 75%
- IC50 (SoxS): > 50 µM
- activity [2]: < 75%
- IC50 (ExsA): < 10 µM

SMILES: O=C(/C=C/c1ccc(F)cc1)Nc1ccc(-c2nc3ccccc3n2O)cc1 [Compound AE, (E)-3-(4-Fluoro-phenyl)-N-[4-(1-hydroxy-1H-benzoimidazol-2-yl)-phenyl]-acrylamide]
- IC50 (LcrF (VirF)): > 50 µM
- activity at 50 µg/mL [1]: 75 to 99%
- activity [2]: 75 to 99%

SMILES: O=C(Nc1ccc(-c2nc3ccc([N+](=O)[O-])cc3n2O)cc1)c1ccc(N2CCCCC2)nc1 [S]
- IC50 (LcrF (VirF)): > 50 µM
- activity at 50 µg/mL [1]: 75 to 99%
- activity [2]: 75 to 99%
- IC50 (ExsA): 25 to 50 µM

SMILES: N#Cc1ccc2nc(-c3ccc(NC(=O)/C=C/c4ccc(C(O)(O)C(F)(F)F)cc4)cc3)n(O)c2c1 [L]
- IC50 (LcrF (VirF)): > 50 µM
- activity at 50 µg/mL [1]: 75 to 99%
- activity [2]: 75 to 99%
- IC50 (ExsA): 10 to 25 µM

SMILES: N#Cc1ccc2nc(-c3ccc(NC(=O)c4ccc(N5CCOCC5)nc4)cc3)n(O)c2c1 [Compound P, N-[4-(6-Cyano-1-hydroxy-1H-benzoimidazol-2-yl)-phenyl]-6-morpholin-4-yl-nicotinamide]
- IC50 (LcrF (VirF)): > 50 µM
- activity at 50 µg/mL [1]: 75 to 99%
- IC50 (SoxS): > 50 µM
- activity [2]: 75 to 99%
- IC50 (ExsA): < 10 µM

SMILES: O=C(Nc1ccc(-c2nc3ccc([N+](=O)[O-])cc3n2O)cc1)c1cccc(N2CCOCC2)n1 [Compound N, 6-Morpholin-4-yl-pyridine-2-carboxylic acid [4-(1-hydroxy-6-nitro-1H-benzoimidazol-2-yl)-phenyl]-amide]
- IC50 (LcrF (VirF)): > 50 µM
- activity at 50 µg/mL [1]: 75 to 99%
- activity [2]: 75 to 99%
- IC50 (ExsA): 10 to 25 µM

SMILES: CC(=O)c1ccc(/C=C/C(=O)Nc2ccc(-c3nc4ccc(Cl)cc4n3O)cc2)cc1 [B]
- IC50 (LcrF (VirF)): > 50 µM
- activity at 50 µg/mL [1]: 75 to 99%
- activity [2]: 75 to 99%
- IC50 (ExsA): 10 to 25 µM

SMILES: O=C(Nc1ccc(-c2nc3ccc([N+](=O)[O-])cc3n2O)cc1)c1ccc(-n2cccn2)nc1 [Compound I]
- IC50 (LcrF (VirF)): 25 to 50 µM
- activity at 50 µg/mL [1]: < 75%
- activity [2]: 75 to 99%
- IC50 (ExsA): 25 to 50 µM

SMILES: O=C(Nc1ccc(-c2nc3ccc([N+](=O)[O-])cc3n2O)cc1)c1ccc(C(O)(O)C(F)(F)F)cc1 [E]
- IC50 (LcrF (VirF)): > 50 µM
- activity at 50 µg/mL [1]: 75 to 99%
- activity [2]: 75 to 99%
- IC50 (ExsA): > 50 µM

SMILES: CC(=O)c1ccc(/C=C/C(=O)Nc2ccc(-c3nc4ccc(C#N)cc4n3O)cc2)cn1 [Compound A, (E)-3-(6-Acetyl-pyridin-3-yl)-N-[4-(6-cyano-1-hydroxy-1H-benzoimidazol-2-yl)-phenyl]-acrylamide]
- IC50 (LcrF (VirF)): 25 to 50 µM
- activity at 50 µg/mL [1]: < 75%
- activity [2]: < 75%
- IC50 (ExsA): > 50 µM

SMILES: N#Cc1ccc2nc(-c3ccc(NC(=O)c4ccc(C(O)(O)C(F)(F)F)cc4)cc3)n(O)c2c1 [F]
- IC50 (LcrF (VirF)): > 50 µM
- activity at 50 µg/mL [1]: 75 to 99%
- activity [2]: 75 to 99%
- IC50 (ExsA): 10 to 25 µM

SMILES: O=C(/C=C/c1ccc(F)cc1)Nc1ccc(-c2nc3ccc(C(F)(F)F)cc3n2O)cc1 [Compound AF, (E)-3-(4-Fluoro-phenyl)-N-[4-(1-hydroxy-6-trifluoromethyl-1H-benzoimidazol-2-yl)-phenyl]-acrylamide]
- IC50 (LcrF (VirF)): > 50 µM
- activity at 50 µg/mL [1]: 75 to 99%
- activity [2]: 75 to 99%

SMILES: O=C(/C=C/c1ccc(F)cc1)Nc1ccc(-c2nc3ccc(Cl)cc3n2O)cc1 [AG]
- IC50 (LcrF (VirF)): > 50 µM
- activity at 50 µg/mL [1]: 75 to 99%
- activity [2]: 75 to 99%

SMILES: Cc1nc(C(F)(F)F)ccc1C(=O)Nc1ccc(-c2nc3ccc([N+](=O)[O-])cc3n2O)cc1 [Compound W, N-[4-(1-Hydroxy-6-nitro-1H-benzoimidazol-2-yl)-phenyl]-2-methyl-6-trifluoromethyl-nicotinamide]
- IC50 (LcrF (VirF)): > 50 µM
- activity at 50 µg/mL [1]: 75 to 99%
- activity [2]: 75 to 99%
- IC50 (ExsA): > 50 µM

SMILES: CN(C)c1ccc(C(=O)Nc2ccc(-c3nc4ccc([N+](=O)[O-])cc4n3O)cc2)cn1 [Y]
- IC50 (LcrF (VirF)): 10 to 25 µM
- activity at 50 µg/mL [1]: < 75%
- activity [2]: 75 to 99%
- IC50 (ExsA): 10 to 25 µM

SMILES: O=C(O)Cc1cc([N+](=O)[O-])cc2c1nc(-c1ccc(NC(=O)c3ccc(N4CCOCC4)nc3)cc1)n2O [Q]
- IC50 (LcrF (VirF)): 25 to 50 µM
- activity at 50 µg/mL [1]: 75 to 99%
- activity [2]: 75 to 99%
- IC50 (ExsA): 25 to 50 µM

SMILES: O=C(/C=C/c1ccc(F)cc1)Nc1ccc(-c2nc3ccc(C(=O)O)cc3n2O)cc1 [Compound AI, 2-{4-[(E)-3-(4-Fluoro-phenyl)-acryloylamino]-phenyl}-3-hydroxy-3H-benzoimidazole-5-carboxylic acid]
- IC50 (LcrF (VirF)): 25 to 50 µM
- activity at 50 µg/mL [1]: < 75%
- activity [2]: 75 to 99%

SMILES: CN(C)c1ccc(/C=C/C(=O)Nc2ccc(-c3nc4ccc([N+](=O)[O-])cc4n3O)cc2)cn1 [Z]
- IC50 (LcrF (VirF)): > 50 µM
- activity at 50 µg/mL [1]: 75 to 99%
- activity [2]: 75 to 99%
- IC50 (ExsA): > 50 µM

SMILES: CN1CCN(c2ccc(C(=O)Nc3ccc(-c4nc5ccc([N+](=O)[O-])cc5n4O)cc3)cn2)CC1 [O]
- IC50 (LcrF (VirF)): > 50 µM
- activity at 50 µg/mL [1]: 75 to 99%
- activity [2]: 75 to 99%
- IC50 (ExsA): > 50 µM

SMILES: O=C(O)Cc1cc([N+](=O)[O-])cc2c1nc(-c1ccc(NC(=O)c3ccc(-n4ccnc4)cc3)cc1)n2O [Compound AA, {1-Hydroxy-2-[4-(4-imidazol-1-yl-benzoylamino)-phenyl]-6-nitro-1H-benzoimidazol-4-yl}-acetic acid]
- IC50 (LcrF (VirF)): < 10 µM
- activity at 50 µg/mL [1]: < 75%
- activity [2]: < 75%
